Experimental findings from ChEMBL document CHEMBL1152345, “Clavatadines C-E, guanidine alkaloids from the Australian sponge Suberea clavata” (J Nat Prod, 2009) are described below.

For assay [1], the target named is Coagulation factor XI (Homo sapiens) (UniProt P03951). Briefly: Inhibition of factor 11a at 222 uM after 10 min.
In assay [2] the target is Coagulation factor IX (Homo sapiens) (UniProt P00740). Put plainly: Inhibition of factor 9a at 222 uM after 10 min.
Chain of Coagulation factor IX (Homo sapiens) (P00740 47-191 limits assumed): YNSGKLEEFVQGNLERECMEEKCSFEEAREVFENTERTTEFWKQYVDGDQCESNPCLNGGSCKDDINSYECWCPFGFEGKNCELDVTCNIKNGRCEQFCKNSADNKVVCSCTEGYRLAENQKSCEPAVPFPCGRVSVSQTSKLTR
Chain of Coagulation factor IX (Homo sapiens) (P00740 227-461 limits assumed): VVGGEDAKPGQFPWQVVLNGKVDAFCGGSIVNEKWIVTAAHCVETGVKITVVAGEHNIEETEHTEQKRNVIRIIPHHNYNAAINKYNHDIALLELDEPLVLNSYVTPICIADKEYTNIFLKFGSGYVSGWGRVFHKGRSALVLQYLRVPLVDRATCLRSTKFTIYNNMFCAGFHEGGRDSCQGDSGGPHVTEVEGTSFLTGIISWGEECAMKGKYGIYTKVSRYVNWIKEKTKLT

Chain of Coagulation factor XI (Homo sapiens) (P03951 19-387 limits assumed): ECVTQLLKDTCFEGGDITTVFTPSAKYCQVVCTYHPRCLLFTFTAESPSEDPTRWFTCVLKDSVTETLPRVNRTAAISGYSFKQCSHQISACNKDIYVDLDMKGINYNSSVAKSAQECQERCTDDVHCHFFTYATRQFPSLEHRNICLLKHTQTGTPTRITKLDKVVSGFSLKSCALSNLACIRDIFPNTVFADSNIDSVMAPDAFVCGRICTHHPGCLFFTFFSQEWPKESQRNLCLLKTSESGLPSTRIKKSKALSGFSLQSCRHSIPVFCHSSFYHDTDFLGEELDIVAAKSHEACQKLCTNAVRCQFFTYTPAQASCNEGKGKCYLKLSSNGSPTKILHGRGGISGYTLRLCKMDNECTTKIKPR
Chain of Coagulation factor XI (Homo sapiens) (P03951 388-625 limits assumed): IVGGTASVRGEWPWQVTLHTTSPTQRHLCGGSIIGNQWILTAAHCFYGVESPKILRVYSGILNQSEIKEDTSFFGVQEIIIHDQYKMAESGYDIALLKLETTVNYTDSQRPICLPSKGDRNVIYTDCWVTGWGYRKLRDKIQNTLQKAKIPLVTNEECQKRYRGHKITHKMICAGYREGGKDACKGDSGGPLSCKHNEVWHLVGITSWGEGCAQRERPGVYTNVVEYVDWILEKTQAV

Turning to `COC1=C(Br)[C@H](O)[C@@]2(C=C1Br)CC(C(=O)NCCCCCNC(=N)N)=NO2`, the inhibition – broadly, the relative decrease from the control value, in per cent – in assay [1] was 30%; in assay [2], < 5%.
For `COC1=C(Br)[C@H](O)[C@@]2(C=C1Br)CC(C(=O)NCCCCNC(=N)N)=NO2` the same measures were 12% and < 5%.
As to `N=C(N)NCCCCCNC(=O)C1=NOC2(C=C(Br)C(=O)C(Br)=C2)C1`, the inhibition is 30% in assay [1] and < 5% in assay [2].
On the same counts, the results for `COC1=C(Br)[C@@H](O)[C@]2(C=C1Br)CC(C(=O)NCCc1cnc[nH]1)=NO2` are 59% and < 5%.
Regarding `N=C(N)NCCCCNC(=O)C1=NOC2(C=C(Br)C(=O)C(Br)=C2)C1`, the values for the inhibition in assay [1] and in assay [2] were 17% and < 5%, respectively.
On the same counts, the results for `N=C(N)NCCCCNC(=O)/C(Cc1ccc(O)c(Br)c1)=N/O` are 37% and < 5%.
